Laboratory results as given in US20040077634A1, “Treatment of diseases characterized by excessive or insufficient cell death” (priority 2001, published 2004).
Residues, ends and D or L forms follow the SMILES beside them. *: point of attachment. Cbz = O=C(OCc1ccccc1)*; CH2F = FC*

Legend:
MCF-neo cells = assay: TNF-induced cell death of MCF-neo cells; format: cell-based
Protocol: (§1) The ability of compound f to inhibit cell death was examined in MCF-neo and MCF-casp3 cells. […] To analyse the mechanism of the action of compound f in alive cells, MCF-casp3 cells were treated with TNF (5 ng/ml) in the presence of 50 μM compound f and the activity of caspase-3-like proteases was measured by a DEVDase enzyme assay.

MCF-casp3 cells = assay: TNF-induced cell death of MCF-casp3 cells
Protocol: as §1

recombinant caspase-9 = target: T1, recombinant caspase-9 (Homo sapiens, UniProt P55211); assay: Recombinant caspase-9 activity, cleavage of LEHD-AFC; format: biochemical
T1 sequence (P55211 1-315 limits assumed): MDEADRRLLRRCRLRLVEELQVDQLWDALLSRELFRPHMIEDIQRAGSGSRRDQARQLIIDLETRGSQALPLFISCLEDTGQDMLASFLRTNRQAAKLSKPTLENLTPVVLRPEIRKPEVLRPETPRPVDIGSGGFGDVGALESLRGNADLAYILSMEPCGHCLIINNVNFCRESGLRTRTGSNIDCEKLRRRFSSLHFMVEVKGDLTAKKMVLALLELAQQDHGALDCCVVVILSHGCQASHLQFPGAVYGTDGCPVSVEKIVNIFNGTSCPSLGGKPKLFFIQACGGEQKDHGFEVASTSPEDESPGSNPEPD
T1 sequence (P55211 331-416 limits assumed): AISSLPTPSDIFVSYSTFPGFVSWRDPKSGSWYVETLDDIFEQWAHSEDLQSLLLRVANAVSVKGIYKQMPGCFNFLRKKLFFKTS
Protocol: The inhibition of the DEVDase activity in the in vitro caspase activation system could be due to a direct inhibition of caspase-9, -3, or -7 activities, or to the inhibition of the apoptosome formation. To test if compounds a, f, and g were specific caspase inhibitors, recombinant caspase-3 and caspase-9 were incubated with the three compounds and the enzymatic activities of caspases were monitored by analysing the cleavage of the caspase-3 substrate DEVD-AFC or the caspase-9 substrate LEHD-AFC, respectively.

recombinant caspase-3 = target: T2, recombinant caspase-3 (Homo sapiens, UniProt P42574); assay: Recombinant caspase-3 activity, cleavage of DEVD-AFC; format: biochemical
T2 sequence (P42574 29-175 limits assumed): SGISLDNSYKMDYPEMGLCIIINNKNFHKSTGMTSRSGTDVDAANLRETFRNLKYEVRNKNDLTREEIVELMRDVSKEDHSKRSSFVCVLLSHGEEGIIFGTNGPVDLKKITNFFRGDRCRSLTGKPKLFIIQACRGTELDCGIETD
T2 sequence (P42574 176-277 limits assumed): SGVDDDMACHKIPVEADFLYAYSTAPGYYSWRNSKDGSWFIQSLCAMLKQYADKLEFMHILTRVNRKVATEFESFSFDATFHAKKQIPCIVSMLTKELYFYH
Protocol: To test if compounds a, f, and g were specific caspase inhibitors, recombinant caspase-3 and caspase-9 were incubated with the three compounds and the enzymatic activities of caspases were monitored by analysing the cleavage of the caspase-3 substrate DEVD-AFC or the caspase-9 substrate LEHD-AFC, respectively.

[1] = system: DEVDase (caspase-3-like protease); assay: Inhibition of DEVDase in cytochrome c/dATP-activated Hela cytosolic extract (method 1); format: biochemical; details: compound final concentration 100 μM; 1 mM dATP and 1 μM cytochrome c; DEVD-AFC
Protocol: Hela cells are grown in large petri dishes until subconfluency. Cells are then harvested and washed in PBS. The cell pellet is resuspended in equal volumes of ice-cold isotonic lysisbuffer (SCA; 20 mM Hepes-KOH pH 7.5, 10 mM KCl, 1.5 mM MgCl2, 1 mM EDTA, 1 mM EGTA, 250 mM sucrose, 1 mM DTT, 10 μg/ml aprotinin, 1 μg/ml leupeptin, 1 μg/ml pepstatin A, 100 μg/ml peta-block), incubated on ice for 30 min and lysed by approx. 30 strokes of a dounce homogenizer. The lysate is then centrifuged at 750 g for 10 min, and the supernatant thereof at 10,000 g for 10 min and at 20,000 g for 30 min. The clarified supernatant is removed carefully and stored in aliquots at −80° C. Activation of endogene caspases is induced by addition of 1 mM dATP and 1 μM horse heart cytochrome c to cytosolic extract (protein concentration; 5-10 mg/ml) in the presence of DEVD-AFC and the compound (final concentration 100 μM). Activated DEVD'ases (AFC release) is measured by fluorometry in 96-well plates at 37° C. After end measurements 2× LSB-Mechaptoethanol are added to the samples for assessment of caspase processing by immunoblot analysis. Percent inhibition is calculated as follows: [formula]

[2] = system: caspase-9, caspase-3 and caspase-7 processing; DFF45/ICAD and PARP cleavage; assay: Processing of caspases and caspase substrates in Cc/dATP-stimulated cell extract, Western blotting; format: biochemical; details: cell extracts stimulated with Cc/dATP; Western blot; dose dependence
Protocol: Activation of endogene caspases is induced by addition of 1 mM dATP and 1 μM horse heart cytochrome c to cytosolic extract (protein concentration; 5-10 mg/ml) in the presence of DEVD-AFC and the compound (final concentration 100 μM). Activated DEVD'ases (AFC release) is measured by fluorometry in 96-well plates at 37° C. After end measurements 2× LSB-Mechaptoethanol are added to the samples for assessment of caspase processing by immunoblot analysis.
Next, the effect of the compounds on the processing of caspases and caspase substrates in the in vitro model system was analysed by Western blotting. Caspase-9, caspase-3 and caspase-7 were processed into p35, p17, and p20 active fragments, respectively, in response to Cc/dATP. Accordingly, Cc/dATP induced a threefold induction in DEVDase activity and cleavage of the caspase-3 substrates DFF45/ICAD and PARP.

[3] = target: T3, apoptosome complex (Apaf-1 and caspase-9) (Homo sapiens, UniProt O14727+P55211); assay: Apoptosome formation: co-immunoprecipitation of Apaf-1 with caspase-9 in cell extract; format: binding; details: 1 μM zVAD-fmk, 1 hour with Cc/dATP prior to IP
T3 construct: Caspase-9 antibody precipitated practically all caspase-9 present in the cell extract; endogenous in cells; host or cells: cell extract
T3 sequence (O14727 1-1248): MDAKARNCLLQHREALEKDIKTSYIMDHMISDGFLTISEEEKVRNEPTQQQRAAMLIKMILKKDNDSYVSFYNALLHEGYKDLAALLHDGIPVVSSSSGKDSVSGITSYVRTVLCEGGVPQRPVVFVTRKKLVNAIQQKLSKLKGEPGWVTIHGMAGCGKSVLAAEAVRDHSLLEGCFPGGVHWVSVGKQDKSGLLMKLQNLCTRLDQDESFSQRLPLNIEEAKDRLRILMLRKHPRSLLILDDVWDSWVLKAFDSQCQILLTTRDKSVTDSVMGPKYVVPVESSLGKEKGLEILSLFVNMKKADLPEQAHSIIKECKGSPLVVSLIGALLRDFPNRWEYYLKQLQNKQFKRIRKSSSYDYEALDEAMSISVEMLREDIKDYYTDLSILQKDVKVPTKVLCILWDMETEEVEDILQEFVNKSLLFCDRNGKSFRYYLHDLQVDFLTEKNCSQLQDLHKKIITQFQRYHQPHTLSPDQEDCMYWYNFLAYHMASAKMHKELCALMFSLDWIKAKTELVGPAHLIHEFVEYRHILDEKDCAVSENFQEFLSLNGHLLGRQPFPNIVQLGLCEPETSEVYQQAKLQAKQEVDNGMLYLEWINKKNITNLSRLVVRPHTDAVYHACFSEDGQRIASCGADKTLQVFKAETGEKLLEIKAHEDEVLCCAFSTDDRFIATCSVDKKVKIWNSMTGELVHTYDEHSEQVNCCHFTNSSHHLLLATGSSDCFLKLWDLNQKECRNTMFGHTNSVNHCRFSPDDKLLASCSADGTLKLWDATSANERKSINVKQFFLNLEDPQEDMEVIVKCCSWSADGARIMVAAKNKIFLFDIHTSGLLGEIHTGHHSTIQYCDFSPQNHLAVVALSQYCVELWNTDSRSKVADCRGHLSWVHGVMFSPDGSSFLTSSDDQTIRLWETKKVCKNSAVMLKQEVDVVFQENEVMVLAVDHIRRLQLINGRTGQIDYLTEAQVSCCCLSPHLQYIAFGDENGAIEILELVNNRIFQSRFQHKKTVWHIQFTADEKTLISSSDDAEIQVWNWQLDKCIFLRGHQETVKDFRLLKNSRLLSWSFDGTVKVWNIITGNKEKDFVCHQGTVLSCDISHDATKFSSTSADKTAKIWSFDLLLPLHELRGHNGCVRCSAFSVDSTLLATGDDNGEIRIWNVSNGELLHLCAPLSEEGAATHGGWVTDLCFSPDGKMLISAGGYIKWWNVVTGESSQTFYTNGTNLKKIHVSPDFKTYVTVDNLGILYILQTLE
T3 sequence (P55211 1-416): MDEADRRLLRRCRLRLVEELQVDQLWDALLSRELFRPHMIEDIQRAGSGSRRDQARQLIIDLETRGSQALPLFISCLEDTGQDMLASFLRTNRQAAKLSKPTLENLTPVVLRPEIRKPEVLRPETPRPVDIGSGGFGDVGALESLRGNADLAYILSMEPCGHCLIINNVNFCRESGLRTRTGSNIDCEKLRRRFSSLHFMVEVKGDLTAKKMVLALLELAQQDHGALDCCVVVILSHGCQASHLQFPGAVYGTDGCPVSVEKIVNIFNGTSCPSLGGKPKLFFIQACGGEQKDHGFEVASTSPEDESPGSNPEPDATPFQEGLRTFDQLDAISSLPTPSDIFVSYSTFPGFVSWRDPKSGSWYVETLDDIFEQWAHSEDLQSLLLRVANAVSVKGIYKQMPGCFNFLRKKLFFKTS
Protocol: Next, it was tested whether compound f interferes with the formation of apoptosome complex in response to Cc/dATP. Cell extracts were incubated with Cc/dATP in the presence or absence of 100 μM compound f or 1 μM zVAD-fmk for 1 hour prior to the immunoprecipitation (IP) of caspase-9. […] Hsp90, which has been proposed to associate with Apaf-1 and prevent oligomerization and caspase-9 recruitment, was not co-immunoprecipitated with caspase-9.

[4] = 25 to 100 μM, DEVD-AFC substrate
[5] = 25 to 100 μM, LEHD-AFC substrate

## CC(=O)N[C@@H](CC(=O)O)C(=O)N[C@@H](CCC(=O)O)C(=O)N[C@H](C(=O)N[C@H](C=O)CC(=O)O)C(C)C [DEVD-CHO, reference compound]
MCF-neo cells; 1 ng/ml TNF, 200 μM DEVD-CHO
  cell death induced by TNF: blocked
MCF-neo cells; 5 ng/ml TNF, 200 μM DEVD-CHO
  protection against TNF: significant protection
MCF-casp3 cells; 1 ng/ml TNF, 200 μM DEVD-CHO
  cell death induced by TNF: blocked
MCF-casp3 cells; 5 ng/ml TNF, 200 μM DEVD-CHO
  protection against TNF: significant protection
Recombinant caspase-9; 0.1 μM DEVD-CHO
  inhibition of recombinant caspase-9 activity: almost total inhibition

## COC(=O)c1cc(NC(=O)Nc2cccc(C(F)(F)F)c2)c(O)cc1[N+](=O)[O-] [a, [N-(2-Hydroxy-5-methoxycarbonyl-4-nitrophenyl)-N′-(3-trifluoromethylphenyl)]urea]
Recombinant caspase-3; [4]
  inhibition of recombinant caspase-3 activity: failed to inhibit
[1]
  % Inhibition: 80%
Recombinant caspase-9; [5]
  inhibition of recombinant caspase-9 activity: failed to inhibit
[2]
  inhibition of caspase-9, -3 and -7 processing and DFF45/ICAD and PARP cleavage: dose-dependent inhibition

## CN1[C@H]2CC[C@@H]1[C@@H](c1nc(-c3cccs3)no1)[C@@H](c1ccc3ccccc3c1)C2.Cl [c, (1R,2S,3S)-2-[3-(2-Thienyl)-1,2,4-oxadiazol-5-yl]-3-(2-naphthyl)-tropane hydrochloric acid salt]
[1]
  % Inhibition: 60%
other
  melting point: 149 to 150 °C

## c1ccc(-c2cccc(-n3cnc4ccccc43)c2)cc1 [d, 1-(3-Biphenyl)-benzimidazole]
[1]
  % Inhibition: 58%

## O=c1onc2cnc3cc([N+](=O)[O-])ccc3n12 [e, 7-Nitro-1,2,4-oxadiazolo[3,4-d]benz[b]-1,4-diazin-1-one]
[1]
  % Inhibition: 63%

## O=C(Nc1cccc(C(F)(F)F)c1)Nc1ccc(O)cc1O [g, [N-(2,4-Dihydroxyphenyl)-N′-(3-trifluoromethylphenyl)]urea]
Recombinant caspase-3; [4]
  inhibition of recombinant caspase-3 activity: failed to inhibit
[1]
  % Inhibition: 74%
Recombinant caspase-9; [5]
  inhibition of recombinant caspase-9 activity: failed to inhibit
[2]
  inhibition of caspase-9, -3 and -7 processing and DFF45/ICAD and PARP cleavage: dose-dependent inhibition

## COC(=O)C[C@H](NC(=O)[C@H](C)NC(=O)[C@@H](NC(=O)OCc1ccccc1)C(C)C)C(=O)CF [zVAD-fmk, reference compound] (Cbz-Val-Ala-Asp(OMe)-CH2F)
MCF-neo cells; 50 μM zVAD-fmk
  TNF-induced death: blocked completely
Recombinant caspase-3; 1 μM zVAD-fmk
  inhibition of recombinant caspase-3 activity: almost total inhibition
MCF-casp3 cells; 50 μM zVAD-fmk
  TNF-induced death: blocked completely
Recombinant caspase-9; 1 μM zVAD-fmk
  inhibition of recombinant caspase-9 activity: almost total inhibition
[3]
  co-immunoprecipitation of Apaf-1 with caspase-9: efficiently co-immunoprecipitated
